# From US20240369551A1 (priority 2021, published 2024)
# Ends that are not written are not given here.
# System: COVID19 anti-S1 IgG
# Assay: UV-vis aggregation test of peptide-coated nanoparticles (Examples 1, 6, 7, 8)
# Assay type: binding
# Conditions: silver nanoparticles (AgNP, 10 nm), streptavidin-biotin
substance,measurement,value
"S14P5-Ag: S14P5 epitope conjugated onto silver nanoparticles (AgNP, 10 nm) through the streptavidin-biotin approach (TESNKKFLPFQQFGRDIA; also: conjugated to silver nanoparticles via streptavidin-biotin)",response upon introduction of COV19 anti-S1 IgGs,visible nanoparticle precipitation
